Values after ≈ are worked out from the molar mass of the structure shown.
Assays:
[1] = tested on: S. aureus 880 (BR-VRSA), NR-49120; experiment: MIC assay; format: cell-based, Staphylococcus aureus; settings: S. aureus 880, NR-49120 VRSA
Method: (§1) The antibacterial activity of the compounds was tested against a panel of bacteria, including Gram-positive bacteria (S. aureus ATCC29213, S. aureus USA300, S. aureus LIM-2, NR-45881, S. aureus HIP13419, NR-46413, E. faecium E155, E. faecium E7314, E. faecium E980, E. faecalis E1246, E. faecalis E7406 and S. pneumonia 153). The antibacterial activity of the compounds was further tested against S. aureus NY-155, NR-46236, S. aureus HIP12864, NR-46074, S. aureus 880 (BR-VRSA), NR-49120, E. faecalis E1246, E. faecalis E7604, as well as some Gram-negative bacteria (Escherichia coli and Klebsiella pneumoniae). Minimum inhibitory concentrations (MICs) in μg/mL were performed according to the CLSI guidelines. From glycerol stocks, bacterial strains were cultured on blood agar plates and incubated at 37° C. for 18 h. A single colony was transferred to tryptic soy broth (TSB) with 0.002% polysorbate 80 (p80). For the Enterococcus, VISA and VRSA strains, the cultures were grown at 37° C. until the optical density of the suspension reached a level equivalent to the 0.5 McFarland standard. The bacterial suspensions were diluted in TSB with 0.002% p80 to reach a bacterial cell density of 10^6 CFU/mL. In case of the other (vancomycin-sensitive) S. aureus strains, the direct colony suspension method was used. For these strains, after transfer of the colonies to TSB with 0.002% p80, they were immediately diluted to 10^6 CFU/mL, instead of incubated prior to this dilution. In the case of S. pneumonia, direct colony suspension was used by immediately suspending multiple colonies from fresh blood agar plates in TSB+0.002% p80 to an OD600 of 0.5 and subsequent dilution to 10^6 CFU mL^−1 in TSB+0.002% p80+5% lysed horse blood. Antibiotic dilutions for this strains were also made in TSB+0.002% p80+5% lysed horse blood. Both agar and microplates containing S. pneumonia were incubated at 37° C. with 5% CO2 for 24 h with constant shaking (600 rpm). […] The cultures were grown to exponential phase (OD600=0.5) at 37° C. […] In polypropylene 96-well microtiter plates, test compounds were added in biological triplicates and serial diluted 2-fold by transfer and mixing from one well to the next to achieve a final volume of 50 μL per well. An equal volume of bacterial suspension (10^6 CFU mL^−1) was added to the wells. The plates were sealed with breathable membranes and incubated at 37° C. for 24 h with constant shaking (600 rpm). In polypropylene microtiter plates, 100 μL of the test compounds was added to the first row in biological triplicates, and 50 μL of media was added to the other wells. The compounds were subjected to serial dilution by transfer and mixing of 50 μL from one well to the next. Subsequently, 50 μL of bacterial suspension (10^6 CFU/mL) was added to the wells. The plates were sealed with breathable membranes and incubated at 37° C. for 24 h with constant shaking (600 rpm). Positive growth control consisted of wells with bacterial suspension and without antibiotic. Negative growth control consisted of solely media without bacterial suspension or antibiotic. The MICs were determined from the median of a minimum of triplicates.

[2] = tested on: S. aureus ATCC29213; experiment: MIC assay; format: cell-based, Staphylococcus aureus; settings: S. aureus ATCC29213 MSSA
Method: as §1

[3] = tested on: S. aureus HIP12864, NR-46074; experiment: MIC assay; format: cell-based, Staphylococcus aureus; settings: S. aureus HIP12864, NR-46074 VISA
Method: as §1

[4] = tested on: S. aureus LIM-2, NR-25881; experiment: MIC assay; format: cell-based, Staphylococcus aureus; settings: S. aureus LIM-2, NR-25881 VISA
Method: as §1

[5] = tested on: S. aureus NY-155, NR-46236; experiment: MIC assay; format: cell-based, Staphylococcus aureus; settings: S. aureus NY-155, NR-46236 MRSA
Method: as §1

[6] = tested on: S. aureus HIP13419, NR-46413; experiment: microbe, parasite or virus in culture; format: cell-based, Staphylococcus aureus; settings: S. aureus HIP13419, NR-46413 VRSA
Method: as §1

[7] = tested on: S. aureus USA300; experiment: microbe, parasite or virus in culture; format: cell-based, Staphylococcus aureus
Method: as §1

[8] = tested on: E. faecium E980; experiment: MIC assay; format: cell-based, Enterococcus faecium; settings: E. faecium E980 VSE
Method: as §1

[9] = tested on: E. faecium E155; experiment: microbe, parasite or virus in culture; format: cell-based, Enterococcus faecium; settings: E. faecium E155 VRE (VanA)
Method: as §1

[10] = tested on: E. faecium E7314; experiment: microbe, parasite or virus in culture; format: cell-based, Enterococcus faecium; settings: E. faecium E7314 VRE (VanB)
Method: as §1

[11] = tested on: E. faecalis E1246; experiment: MIC assay; format: cell-based, Enterococcus faecalis
Method: as §1

[12] = tested on: E. faecalis E7406; experiment: microbe, parasite or virus in culture; format: cell-based, Enterococcus faecalis; settings: E. faecalis E7406 VRE (VanB)
Method: as §1

[13] = tested on: E. faecalis E7604; experiment: microbe, parasite or virus in culture; format: cell-based, Enterococcus faecalis; settings: E. faecalis E7604 VRE (vanB)
Method: as §1

[14] = tested on: S. pneumoniae 153; experiment: MIC assay; format: cell-based; settings: S. pneumoniae 153; TSB+0.002% p80+5% lysed horse blood
Method: as §1

[15] = tested on: MRSA USA300; experiment: MIC assay in the presence of sheep serum; format: cell-based, Staphylococcus aureus; settings: MRSA USA300, TSB + 0.002% p80 + 50% sheep serum
Method: as §1
The activity of the compounds was further assessed against MRSA USA300 strain in the presence of sheep) serum in another MIC assay. The cultures that grew in the presence of serum used TSB+0.002% P80+50% sheep serum as growth media, as opposed to normal MICs done in only TSB+0.002% P80.

[16] = E. faecalis E1246 VRE (VanA), Table 7
[17] = E. faecalis E1246 VRE (vanA), Table 9

Row | Compound | MIC [1] [µg/mL] | MIC [2] [µg/mL] | MIC [3] [µg/mL] | MIC [4] [µg/mL] | MIC [5] [µg/mL] | MIC [6] [µg/mL] | MIC ([7]; MRSA USA300, TSB + 0.002% p80) [µg/mL] | MIC ([7]; S. aureus USA300 MRSA) [µg/mL] | MIC [8] [µg/mL] | MIC [9] [µg/mL] | MIC [10] [µg/mL] | MIC [11, 16] [µg/mL] | MIC [11, 17] [µg/mL] | MIC [12] [µg/mL] | MIC [13] [µg/mL] | MIC [14] [µg/mL] | MIC [15] [µg/mL]
1 | CCCCCCNC(N)=Nc1ccc(CNC2(C)CC(OC3C(Oc4c5cc6cc4Oc4ccc(cc4Cl)C(O)C4NC(=O)C(NC(=O)C6NC(=O)C(CC(N)=O)NC(=O)C(NC(=O)C(CC(C)C)NC)C(O)c6ccc(c(Cl)c6)O5)c5ccc(O)c(c5)-c5c(O)cc(O)cc5C(C(=O)O)NC4=O)OC(CO)C(O)C3O)OC(C)C2O)cc1 (centres unmarked) [Compound 4] | 16 (≈ 9.52 µM) | 0.0625 (≈ 0.0372 µM) | 0.5 (≈ 0.298 µM) | 0.25 (≈ 0.149 µM) | 0.063 (≈ 0.0375 µM) | 4 (≈ 2.38 µM) | 0.063 | 0.0625 (≈ 0.0372 µM) | 0.03125 (≈ 0.0186 µM) | 8 (≈ 4.76 µM) | 0.03125 (≈ 0.0186 µM) | 32 (≈ 19 µM) | 32 (≈ 19 µM) | 0.25 (≈ 0.149 µM) | 0.25 (≈ 0.149 µM) | 0.016 (≈ 0.00952 µM) | 0.063
2 | CCCCCCCCCCNC(N)=Nc1ccc(CN[C@@]2(C)C[C@H](O[C@H]3[C@H](Oc4c5cc6cc4Oc4ccc(cc4Cl)[C@@H](O)[C@@H](NC(=O)[C@@H](CC(C)C)NC)C(=O)N[C@@H](CC(N)=O)C(=O)N[C@H]6C(=O)N[C@H]4C(=O)N[C@H](C(=O)N[C@H](C(=O)O)c6cc(O)cc(O)c6-c6cc4ccc6O)[C@H](O)c4ccc(c(Cl)c4)O5)O[C@H](CO)[C@@H](O)[C@@H]3O)O[C@@H](C)[C@H]2O)cc1 [Compound 8] | 0.25 (≈ 0.144 µM) | 0.01562 (≈ 0.00899 µM) | 0.062 (≈ 0.0357 µM) | 0.016 (≈ 0.00921 µM) | ≤0.008 | 0.063 (≈ 0.0363 µM) | 0.063 | 0.0625 (≈ 0.036 µM) | 0.01562 (≈ 0.00899 µM) | 0.25 (≈ 0.144 µM) | ≤0.007812 | 1 (≈ 0.576 µM) | 1 (≈ 0.576 µM) | ≤0.007812 | ≤0.008 | ≤0.008 | 0.125
3 | CCCCCCCCCCCCNC(N)=Nc1ccc(CN[C@@]2(C)C[C@H](O[C@H]3[C@H](Oc4c5cc6cc4Oc4ccc(cc4Cl)[C@@H](O)[C@@H](NC(=O)[C@@H](CC(C)C)NC)C(=O)N[C@@H](CC(N)=O)C(=O)N[C@H]6C(=O)N[C@H]4C(=O)N[C@H](C(=O)N[C@H](C(=O)O)c6cc(O)cc(O)c6-c6cc4ccc6O)[C@H](O)c4ccc(c(Cl)c4)O5)O[C@H](CO)[C@@H](O)[C@@H]3O)O[C@@H](C)[C@H]2O)cc1 [Compound 9] | 0.25 (≈ 0.142 µM) | 0.125 (≈ 0.0708 µM) | 0.25 (≈ 0.142 µM) | 0.5 (≈ 0.283 µM) | 0.5 (≈ 0.283 µM) | 0.125 (≈ 0.0708 µM) | 0.5 | 0.5 (≈ 0.283 µM) | 0.125 (≈ 0.0708 µM) | 0.125 (≈ 0.0708 µM) | 0.03125 (≈ 0.0177 µM) | 1 (≈ 0.567 µM) | 1 (≈ 0.567 µM) | 0.0625 (≈ 0.0354 µM) | 0.063 (≈ 0.0357 µM) | ≤0.008 | 1
4 | CCCCCCCCCCCCCCNC(N)=Nc1ccc(CN[C@@]2(C)C[C@H](O[C@H]3[C@H](Oc4c5cc6cc4Oc4ccc(cc4Cl)[C@@H](O)[C@@H](NC(=O)[C@@H](CC(C)C)NC)C(=O)N[C@@H](CC(N)=O)C(=O)N[C@H]6C(=O)N[C@H]4C(=O)N[C@H](C(=O)N[C@H](C(=O)O)c6cc(O)cc(O)c6-c6cc4ccc6O)[C@H](O)c4ccc(c(Cl)c4)O5)O[C@H](CO)[C@@H](O)[C@@H]3O)O[C@@H](C)[C@H]2O)cc1 [Compound 10] | 1 (≈ 0.558 µM) | 2 (≈ 1.12 µM) | 2 (≈ 1.12 µM) | 4 (≈ 2.23 µM) | 8 (≈ 4.46 µM) | 0.5 (≈ 0.279 µM) | 4 | 4 (≈ 2.23 µM) | 0.5 (≈ 0.279 µM) | 0.5 (≈ 0.279 µM) | 0.5 (≈ 0.279 µM) | 2 (≈ 1.12 µM) | 2 (≈ 1.12 µM) | 1 (≈ 0.558 µM) | 1 (≈ 0.558 µM) | 0.031 (≈ 0.0173 µM) | 16
5 | CCCCN(CCCC)C(N)=Nc1ccc(CN[C@@]2(C)C[C@H](O[C@H]3[C@H](Oc4c5cc6cc4Oc4ccc(cc4Cl)[C@@H](O)[C@@H](NC(=O)[C@@H](CC(C)C)NC)C(=O)N[C@@H](CC(N)=O)C(=O)N[C@H]6C(=O)N[C@H]4C(=O)N[C@H](C(=O)N[C@H](C(=O)O)c6cc(O)cc(O)c6-c6cc4ccc6O)[C@H](O)c4ccc(c(Cl)c4)O5)O[C@H](CO)[C@@H](O)[C@@H]3O)O[C@@H](C)[C@H]2O)cc1 [Compound 11] | 64 (≈ 37.5 µM) | 0.125 (≈ 0.0732 µM) | 1 (≈ 0.585 µM) | 0.5 (≈ 0.293 µM) | 0.063 (≈ 0.0369 µM) | 16 (≈ 9.36 µM) | 0.125 | 0.125 (≈ 0.0732 µM) | 0.0625 (≈ 0.0366 µM) | 32 (≈ 18.7 µM) | 0.5 (≈ 0.293 µM) | >128 | >128 | 8 (≈ 4.68 µM) | 8 (≈ 4.68 µM) | 0.063 (≈ 0.0369 µM) | 0.063
6 | Teicoplanin [reference compound] | 16 | 0.5 | 4 | 16 | 0.5 | 32 | 0.5 | 0.5 | 0.5 |  | 0.25 | >128 | >128 | 0.125 | 0.125 | 0.031 | 2
